# Test results as given in PMC4900628, “Critical Evaluation of P2X7 Receptor Antagonists in Selected Seizure Models” (PLoS ONE, 2016).
# Where two headings read alike, the source gives them in different places.
# Experiments:
# mouse P2X7R = target: T1, mouse P2X7R (Mus musculus, UniProt Q9Z1M0); test: fluorometric Ca2+ assay (ATP-induced [Ca2+]i response) in HEKmP2X7 cells; format: cell-based; settings: fluo-4, 1 mM ATP, read-out: Potency IC50 ± SEM, Mouse P2X7R
# T1 construct: expressed in transfected cells
# T1 sequence (Q9Z1M0 1-595): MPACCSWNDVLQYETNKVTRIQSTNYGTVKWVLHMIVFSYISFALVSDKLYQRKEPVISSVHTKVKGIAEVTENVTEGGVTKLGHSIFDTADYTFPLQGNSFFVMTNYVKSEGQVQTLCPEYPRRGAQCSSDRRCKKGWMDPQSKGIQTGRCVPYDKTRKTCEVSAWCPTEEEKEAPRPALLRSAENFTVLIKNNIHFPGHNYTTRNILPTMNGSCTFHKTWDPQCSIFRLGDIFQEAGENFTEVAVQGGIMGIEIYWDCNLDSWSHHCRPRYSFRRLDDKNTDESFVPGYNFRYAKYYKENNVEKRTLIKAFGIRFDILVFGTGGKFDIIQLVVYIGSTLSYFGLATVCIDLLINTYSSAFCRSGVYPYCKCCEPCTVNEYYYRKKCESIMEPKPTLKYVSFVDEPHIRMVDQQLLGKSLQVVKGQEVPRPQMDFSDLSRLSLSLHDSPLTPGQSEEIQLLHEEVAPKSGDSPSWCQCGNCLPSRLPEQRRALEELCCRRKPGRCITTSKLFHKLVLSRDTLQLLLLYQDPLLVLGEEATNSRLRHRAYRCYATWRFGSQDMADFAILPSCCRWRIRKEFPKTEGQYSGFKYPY
# Experimental: Cells were grown in a humidified incubator at 37°C in an atmosphere supplemented with 5% CO2. […] HEK293mP2X7 were cultured in DMEM under similar conditions as described above, but containing 100 μg/ml zeocin (Invitrogen). […] Expression of the transgene was induced by supplementing the medium with 1 μg/ml tetracycline (Sigma-Aldrich, Taufkirchen, Germany) 24 h prior to the experiments. All fluorometric Ca^2+ assays in cell suspensions were performed in 384-microwell plates (Corning, No. 3655, Lowell, MA, USA) with a fluorescence-imaging microplate reader (POLARstar Omega, BMG Labtech, Offenburg, Germany) (for details, see [61, 68]). […] Microwell plates were repetitively scanned every 16 s in the fast scanning mode of the device. […] Data were normalized to the baseline values before ATP application (F/F0). […] ATP-solution was freshly prepared in Mg^2+-free HBS solution and adjusted to pH 7.4. Aliquots of stock solutions were stored at -20°C and freshly diluted with the appropriate HBS solution. […] Results are expressed as mean ± SEM. […] In the PTZ-T, the number of animals in the group with clonic seizures and the latency time were analysed using Fisher's exact probability test and the Mann-Whitney rank sum test, respectively. For multiple comparisons of the latency time a one-way ANOVA with the Holm-Sidak post hoc test was used. The influence of AFC on the plasma and brain concentrations of the antiepileptic drugs was statistical compared using the same procedure. In the PTZ-kindling model, the mean seizure stage within a group was calculated in relation to the number of PTZ-injections. Statistical comparison between vehicle- and compound-treated groups in this model was performed with two-way repeated measures ANOVA, followed by the Holm-Sidak post hoc test. […] In fully kindled rats, the calculated mean seizure stage within a group after vehicle- and compound-treatment were compared using a paired t-test. P < 0.05 was the accepted minimum level of significance.
# [1] = Plasma and brain concentration in rats (after PTZ-kindling); format: in vivo; settings: for concentration at 45 min / Kp at 0.75 h: ip; for Kp at 0.75 h: 45 min
# Experimental: One day after kindling procedure, selected rats (groups with n ≥ 5) were again pre-treated with the compounds of interest and sacrificed at the assumed peak times of brain concentration by CO2 inhalation. Blood was collected intracardially by heart centesis via glass pipettes supplemented with heparin-Na (ratiopharm, Ulm, Germany; 10μl of 5.000 I.U./ml) and separated by centrifuging (1500xg for 10 min) at 6–8°C. The plasma was stored at -20°C in plastic tubes. After blood sample collection, rats were decapitated and brains were quickly dissected. After removing the adherent blood by tissue paper and cutting off the cerebellum, the samples were fresh frozen using liquid nitrogen. Brain tissue was stored at -80°C and delivered to the different laboratories on dry ice. For mice (groups with n = 6), a similar procedure was used for the preparation of plasma and brain samples. In experiments in which AFC was co-administered with carbamazepine or ethosuximide, drug concentrations in plasma and brain were estimated to detect potential pharmacokinetic interactions.
# Samples from experiments with AFC were analysed at the Lead Discovery Center (Dortmund, Germany). Briefly, AFC, carbamazepine and ethosuximide were extracted from plasma and homogenized brain by protein precipitation using acetonitrile. Resulting filtrates were analysed by liquid chromatography tandem-mass spectrometry (LC-MS/MS) using a Prominence UFLC system (Shimadzu, Duisburg, Germany) coupled to a QTrap 5500 instrument (ABSciex, Darmstadt, Germany). The compounds were separated on a Zorbax Eclipse Plus C18 column (Agilent Technologies, Santa Clara, CA, USA) with an acetonitrile/water gradient containing 0.1% formic acid as solvent. Chromatographic conditions and mass spectrometer parameters were optimized for each analyte. Plasma and brain concentrations of the compounds were calculated by means of a standard curve.
# Plasma and brain samples from experiments with JNJ-47965567 were quantified at the Neuroscience Therapeutic Area, Janssen Research & Development (San Diego, CA, USA) using an API 4000 MS/MS system (Applied Biosystems, Concord, ON, Canada) interfaced with an Agilent 1100 Series HPLC (Agilent Technologies). To measure the percentage of P2X7R brain occupancy of JNJ-47965567, ex vivo receptor binding autography was performed as recently described. Briefly, 20 μm-thick hippocampal slices were prepared and P2X7R radioligand binding was determined at room temperature with 10 nM [^3H] JNJ-54232334 (Janssen) in 50 mM Tris-HCl incubation buffer containing 0.1% bovine serum albumin. The non-specific binding was measured using adjacent sections incubated in the additional presence of 100 μM A-740003 (Tocris Bioscience, Bristol UK). Sections were incubated for 1 min, washed in ice-cold incubation buffer (4 times, 5 min each), followed by two dips in deionized water and rapidly dry under a stream of cold air before acquisition. Quantitative analysis was performed using the Tracer ß-Imager with M3 Vision software (Biospace Lab, Paris, France). Ex vivo receptor labelling was expressed as the percentage of receptor labelling in corresponding brain areas of vehicle-treated control animals.
Compound,IC50 (mouse P2X7R) [µM],"mean brain concentration ([1]; 30 mg/kg i.p., 45 min before, n = 5) [µM]","concentration at 45 min ([1]; rat, brain, 30 mg/kg i.p., after 45 min, read-out: rat brain concentration) [µM]","Kp at 0.75 h ([1]; rat, brain, 30 mg/kg, 30 mg/kg i.p., read-out: brain to plasma ratio)","concentration at 45 min ([1]; rat, plasma, 30 mg/kg i.p., 45 min before, n = 5, read-out: mean blood plasma concentration) [µM]","mean brain concentration ([1]; 50 mg/kg i.p., 45 min before, n = 7) [µM]","concentration at 45 min ([1]; rat, brain, 50 mg/kg i.p., 45 min after injection, read-out: rat brain concentration) [µM]","Kp at 0.75 h ([1]; rat, brain, 50 mg/kg, 50 mg/kg i.p., read-out: brain to plasma ratio)","concentration at 45 min ([1]; rat, plasma, 50 mg/kg i.p., 45 min before, n = 7, read-out: mean blood plasma concentration) [µM]","mean brain concentration ([1]; 15 mg/kg s.c., 30 min before, n = 5, listed as JNJ, 15 mg/kg) [µM]","concentration at 30 min ([1]; rat, brain, sc, 15 mg/kg s.c., 30 min before, n = 5, read-out: mean brain concentration) [µM]","Kp at 0.5 h ([1]; rat, brain, sc, 15 mg/kg, 15 mg/kg s.c., 30 min, read-out: brain to plasma ratio)","concentration at 30 min ([1]; rat, plasma, sc, 15 mg/kg s.c., 30 min before, n = 5, read-out: mean blood plasma concentration) [µM]"
"Cc1c(S(=O)(=O)[O-])oc2c1C(=O)C(=O)c1c-2ccc2c1CCCC2(C)C.[Na+] [Tanshinone TIIAS, tanshinone IIS sulfonic sodium]",≥ 6,0.5 ± 0.1,0.5,0.02,31.1 ± 5.9,–,–,–,–,–,–,–,–
CCOc1ccc(Nc2ccc(/C(=C3C=C/C(=[N+](/CC)Cc4cccc(S(=O)(=O)[O-])c4)C=C/3C)c3ccc(N(CC)Cc4cccc(S(=O)(=O)O)c4)cc3C)cc2)cc1 [Brilliant Blue G],0.53 ± 0.15,–,–,–,–,0.02 ± 0.002,0.02,0.01,1.6 ± 0.3,–,–,–,–
"O=C(NCC1(N2CCN(c3ccccc3)CC2)CCOCC1)c1cccnc1Sc1ccccc1 [JNJ-47965567, N-[[4-(4-phenyl-piperazin-1-yl)tetrahydro-2H-pyran-4-yl]-methyl]-2-(phenyl-thio) nicotinamide]",0.01 ± 0.001,–,–,–,–,–,–,–,–,5.0 ± 1.1,5,1.2,4 ± 1
